Laboratory results taken from US10294202B2, “Pyrrolidinones as herbicides” (FMC Corporation, priority 2013, dated 2019).

Columns and labels:
[1] = tested on: barnyardgrass; assay: Test A pre-/postemergence herbicide test; type: in vivo, Echinochloa crus-galli
How it was run: (§1)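 Visual 0–100 ratings (100 = complete control) made about 10 days after treatment, greenhouse-held plants compared with untreated controls. Treatments: postemergence sprays on one- to two-leaf plants (2–10 cm tall) and preemergence directed soil sprays after planting in loam–sand, chemicals formulated in non-phytotoxic solvent containing surfactant.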

[2] = tested on: crabgrass, large; assay: Test A pre-/postemergence herbicide test; type: in vivo, Digitaria sanguinalis
How it was run: as §1

[3] = tested on: giant foxtail; assay: Test A pre-/postemergence herbicide test; type: in vivo, Setaria faberii
How it was run: as §1

[4] = tested on: morningglory; assay: Test A pre-/postemergence herbicide test; type: in vivo, Ipomoea spp.
How it was run: as §1

[5] = tested on: pigweed; assay: Test A pre-/postemergence herbicide test; type: in vivo, Amaranthus retroflexus
How it was run: as §1

[6] = tested on: velvetleaf; assay: Test A pre-/postemergence herbicide test; type: in vivo, Abutilon theophrasti
How it was run: as §1

[7] = tested on: wheat; assay: Test A pre-/postemergence herbicide test; type: in vivo, Triticum aestivum
How it was run: as §1

[8] = tested on: corn; assay: Test A pre-/postemergence herbicide test; type: in vivo, Zea mays
How it was run: as §1

[9] = tested on: rice; assay: Test B flooded paddy test; type: in vivo, Oryza sativa; conditions: Flood, scale of 0 to 100 where 0 is no effect and 100 is complete control
How it was run: (§2)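 Treatment was made at the 2-leaf stage by dosing the standing floodwater, kept 3 cm above soil level for the whole test. Greenhouse exposure lasted 13 to 15 days. Response is a visual percent rating relative to controls, where a dash indicates no test result.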

[10] = tested on: sedge, umbrella; assay: Test B flooded paddy test; type: in vivo, Cyperus difformis; conditions: Flood, scale of 0 to 100 where 0 is no effect and 100 is complete control
How it was run: as §2

[11] = tested on: ducksalad; assay: Test B flooded paddy test; type: in vivo, Heteranthera limosa; conditions: Flood, scale of 0 to 100 where 0 is no effect and 100 is complete control
How it was run: as §2

[12] = tested on: barnyardgrass; assay: Test B flooded paddy test; type: in vivo, Echinochloa crus-galli; conditions: Flood, scale of 0 to 100 where 0 is no effect and 100 is complete control
How it was run: as §2

[13] = tested on: rice; assay: Test C flooded paddy test; type: in vivo, Oryza sativa; conditions: Flood
How it was run: (§3)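 Plants at the 2-leaf stage in pots flooded to 3 cm were treated by applying compound directly to the paddy water, with depth held throughout. After 13 to 15 days in a greenhouse, response was rated visually against controls on a 0 (no effect) to 100 (complete control) scale.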

[14] = tested on: sedge, umbrella; assay: Test C flooded paddy test; type: in vivo, Cyperus difformis; conditions: Flood
How it was run: as §3

[15] = tested on: ducksalad; assay: Test C flooded paddy test; type: in vivo, Heteranthera limosa; conditions: Flood
How it was run: as §3

[16] = tested on: barnyardgrass; assay: Test C flooded paddy test; type: in vivo, Echinochloa crus-galli; conditions: Flood
How it was run: as §3

[17] = tested on: kochia; assay: Test A pre-/postemergence herbicide test; type: in vivo, Kochia scoparia; conditions: for Plant response rating, Kochia: 0 to 100 scale
How it was run: as §1

[18] = tested on: ragweed; assay: Test A pre-/postemergence herbicide test; type: in vivo, Ambrosia elatior; conditions: for Plant response rating, Ragweed: 0 to 100 scale
How it was run: as §1

[19] = tested on: ryegrass, Italian; assay: Test A pre-/postemergence herbicide test; type: in vivo, Lolium multiflorum; conditions: for Plant response rating, Ryegrass, Italian: 0 to 100 scale
How it was run: as §1

[20] = tested on: blackgrass; assay: Test A postemergence herbicide test; type: in vivo, Alopecurus myosuroides
How it was run: (§4)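 Ratings compare treated with untreated plants roughly 10 days after a postemergence application made at the one- to two-leaf stage. Scoring uses 0–100, where 0 means no effect and 100 complete control.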

[21] = tested on: galium; assay: Test A postemergence herbicide test; type: in vivo, Galium aparine
How it was run: as §4

[22] = Postemergence, 125 g ai/ha, 0 to 100 scale, 0 no effect, 100 complete control
[23] = Postemergence, 500 g ai/ha, 0 to 100 scale (0 no effect, 100 complete control)
[24] = Preemergence, 125 g ai/ha, visual rating on 0 to 100 scale (0 no effect, 100 complete control)
[25] = preemergence, 500 g ai/ha, 0 to 100 scale (0 no effect, 100 complete control)
[26] = preemergence, 500 g ai/ha, 0 to 100 scale
[27] = 125 g ai/ha, scale of 0 to 100 where 0 is no effect and 100 is complete control, 13 to 15 days
[28] = 125 g ai/ha, visual rating, 0 to 100 scale, 0 no effect, 100 complete control, approximately 10 days, preemergence
[29] = Postemergence, 125 g ai/ha, 0 to 100 scale, 0 is no effect, 100 is complete control
[30] = 125 g ai/ha, visual rating, 0 no effect, 100 complete control, approximately 10 days, preemergence
[31] = Postemergence, 125 g ai/ha, 0 is no effect, 100 is complete control
[32] = preemergence, 500 g ai/ha, 0 is no effect and 100 is complete control
[33] = 125 g ai/ha, 0 to 100 scale, 0 is no effect, 100 is complete control

O=C1NCC(c2ccc(Cl)cc2)C1C(=O)Nc1ccccc1F (racemic) [Compound 87]
30: Plant response rating, Rice ([13]; 1000 g ai/ha, scale 0 to 100)
95: Plant response rating, Ducksalad ([15]; 250 g ai/ha, scale 0 to 100)
25: Plant response rating, Barnyardgrass ([16]; 500 g ai/ha, scale 0 to 100)
20: Barnyardgrass plant response rating [1, 24] | Plant response rating, Pigweed [5, 23] | Plant response rating, Wheat [7, 23]
60: Plant response rating, Crabgrass, Large [2, 22] | Foxtail, Giant plant response rating [3, 24] | Plant response rating, Barnyardgrass ([12]; 250 g ai/ha)
10: Plant response rating, Morningglory [4, 23] | Plant response rating, Wheat [7, 26]
90: Plant response rating, Crabgrass, Large [2, 26] | Plant response rating, Foxtail, Giant [3, 26]
75: Plant response rating, Ducksalad [15, 27]
0: Plant response rating, Morningglory [4, 22] | Morningglory plant response rating [4, 24] | Plant response rating, Morningglory [4, 26] | Plant response rating, Pigweed [5, 22] | Pigweed plant response rating [5, 24] | Plant response rating, Pigweed [5, 26] | Plant response rating, Velvetleaf [6, 22] | Plant response rating, Velvetleaf [6, 23] | Velvetleaf plant response rating [6, 24] | Plant response rating, Velvetleaf [6, 26] | Plant response rating, Wheat [7, 22] | Wheat plant response rating [7, 24] | Plant response rating, Corn [8, 22] | Plant response rating, Corn [8, 23] | Corn plant response rating [8, 24] | Plant response rating, Corn [8, 26] | Plant response rating, Rice ([9]; 250 g ai/ha) | Plant response rating, Sedge, Umbrella ([10]; 250 g ai/ha) | Plant response rating, Rice [13, 27] | Plant response rating, Rice ([13]; 250 g ai/ha, scale 0 to 100) | Plant response rating, Rice ([13]; 500 g ai/ha, scale 0 to 100) | Plant response rating, Sedge, Umbrella [14, 27] | Plant response rating, Sedge, Umbrella ([14]; 250 g ai/ha, scale 0 to 100) | Plant response rating, Sedge, Umbrella ([14]; 500 g ai/ha, scale 0 to 100) | Plant response rating, Sedge, Umbrella ([14]; 1000 g ai/ha, scale 0 to 100) | Plant response rating, Barnyardgrass [16, 27] | Plant response rating, Barnyardgrass ([16]; 250 g ai/ha, scale 0 to 100)
40: Plant response rating, Barnyardgrass ([16]; 1000 g ai/ha, scale 0 to 100)
50: Plant response rating, Barnyardgrass [1, 22] | Plant response rating, Foxtail, Giant [3, 22]
80: Plant response rating, Barnyardgrass [1, 23] | Plant response rating, Barnyardgrass [1, 25] | Plant response rating, Crabgrass, Large [2, 23] | Crabgrass, Large plant response rating [2, 24] | Plant response rating, Foxtail, Giant [3, 23] | Plant response rating, Ducksalad ([11]; 250 g ai/ha)
100: Plant response rating, Ducksalad ([15]; 500 g ai/ha, scale 0 to 100) | Plant response rating, Ducksalad ([15]; 1000 g ai/ha, scale 0 to 100)

O=C1NCC(c2ccc3c(c2)OC(F)(F)O3)C1C(=O)Nc1ccccc1F (racemic) [Compound 161]
60: Kochia plant response rating (0 to 100 scale, 0 is no effect, 100 is complete control) ([17]; Postemergence, 500 g ai/ha) | Plant response rating, Kochia [17, 32] | Pigweed plant response rating (0 to 100 scale, 0 is no effect, 100 is complete control) ([5]; Postemergence, 500 g ai/ha) | Corn plant response rating (0 to 100 scale, 0 is no effect, 100 is complete control) ([8]; Postemergence, 500 g ai/ha) | Galium plant response rating (0 to 100 scale, 0 is no effect, 100 is complete control) ([21]; 500 g ai/ha)
20: Plant response rating, Kochia [17, 30] | Plant response rating, Kochia [17, 31] | Plant response rating, Ragweed [18, 30] | Plant response rating, Ryegrass, Italian [19, 31] | Plant response rating, Pigweed [5, 28] | Plant response rating, Pigweed [5, 29] | Plant response rating, Wheat [7, 29]
90: Plant response rating, Barnyardgrass [1, 28] | Plant response rating, Barnyardgrass [1, 29] | Barnyardgrass plant response rating (0 to 100 scale, 0 is no effect, 100 is complete control) ([1]; Postemergence, 500 g ai/ha) | Plant response rating, Barnyardgrass [1, 25] | Plant response rating, Foxtail, Giant [3, 28] | Plant response rating, Foxtail, Giant [3, 29] | Foxtail, Giant plant response rating (0 to 100 scale, 0 is no effect, 100 is complete control) ([3]; Postemergence, 500 g ai/ha) | Plant response rating, Foxtail, Giant [3, 26]
10: Plant response rating, Corn [8, 29] | Plant response rating, Rice ([9]; 500 g ai/ha)
50: Ryegrass, Italian plant response rating (0 to 100 scale, 0 is no effect, 100 is complete control) ([19]; Postemergence, 500 g ai/ha) | Plant response rating, Ryegrass, Italian [19, 32] | Plant response rating, Blackgrass [20, 33] | Blackgrass plant response rating (0 to 100 scale, 0 is no effect, 100 is complete control) ([20]; 500 g ai/ha) | Plant response rating, Galium [21, 33]
30: Ragweed plant response rating (0 to 100 scale, 0 is no effect, 100 is complete control) ([18]; Postemergence, 500 g ai/ha)
0: Plant response rating, Ragweed [18, 31] | Plant response rating, Ryegrass, Italian [19, 30] | Plant response rating, Sedge, Umbrella ([10]; 500 g ai/ha)
70: Plant response rating, Ragweed [18, 32] | Plant response rating, Pigweed ([5]; preemergence, 500 g ai/ha, 0 to 100 scale, 0 is no effect and 100 is complete control)
100: Plant response rating, Ducksalad ([11]; 500 g ai/ha)
65: Plant response rating, Barnyardgrass ([12]; 500 g ai/ha)
40: Wheat plant response rating (0 to 100 scale, 0 is no effect, 100 is complete control) ([7]; Postemergence, 500 g ai/ha)
